Experiment [1] concerns JAK2-dependent nuclear translocation of STAT5-GFP in U-2 OS osteosarcoma cells. As to the kind of experiment: STAT5 nuclear translocation assay (Cellomics), rhEpo stimulated U-2 OS STAT5-GFP cells. Format: cell-based. As to conditions: Homo sapiens, U2OS; STAT5 translocation pathway. An outline of the steps:
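U-2 OS cells stably expressing STAT5a-GFP and EpoR pre-treated with compound (final 10 μM to 0.003 μM, 0.1% DMSO) for 30 min at 37° C., then stimulated 1 h with 5 U/ml rhEpo. Nuclear-cytoplasmic GFP differential quantified by automated imaging (≥1000 cells/well, Hoechst nuclear mask). IC50 from % translocation normalized to untreated and DMSO-stimulated controls.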

Another experiment deals with T1, GST-JAK2(808-1132) (Homo sapiens, UniProt O60674).
T1 construct: GST-JAK2(808-1132); purchased Invitrogen (Carlsbad, USA) #4288
T1 sequence (O60674 808-1132): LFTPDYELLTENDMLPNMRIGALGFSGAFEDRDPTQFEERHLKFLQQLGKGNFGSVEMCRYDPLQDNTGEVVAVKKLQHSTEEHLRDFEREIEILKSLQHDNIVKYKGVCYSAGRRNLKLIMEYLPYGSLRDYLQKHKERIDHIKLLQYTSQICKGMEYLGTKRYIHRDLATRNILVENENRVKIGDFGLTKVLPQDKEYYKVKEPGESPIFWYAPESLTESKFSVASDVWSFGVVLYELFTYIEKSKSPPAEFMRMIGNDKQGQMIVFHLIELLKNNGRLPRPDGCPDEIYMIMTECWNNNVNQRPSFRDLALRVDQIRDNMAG
Description: JAK2 kinase assay (Caliper mobility shift, LabChip 3000). Format: biochemical. Summed up:
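Recombinant GST-JAK2(808-1132) kinase domain with FITC-labelled JAK3tide peptide substrate and ATP; 60 min at 30 °C, EDTA stop. Substrate/product ratio read by microfluidic mobility shift; compounds at 8 final concentrations, 10 to 0.003 μM.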

One may read the IC50 as the concentration needed to halve the response being measured. In the case of `Fc1cc(-n2ccc3cnc(Nc4ccc(C5CNCCO5)cc4)nc32)cc(F)c1CN1CCOCC1` (racemic) [Example 354, [7-(3,5-Difluoro-4-morpholin-4-ylmethyl-phenyl)-7H-pyrrolo[2,3-d]pyrimidin-2-yl]-(4-morpholin-2-yl-phenyl)-amine], the IC50 is 1.3 nM in experiment [1] and no more than 3 nM on GST-JAK2(808-1132).

Take `Cc1ccc(Nc2ncc3ccn(-c4cc(F)c(CN5CCOCC5)c(F)c4)c3n2)cc1Cn1ccnc1` [Example 412, [7-(3,5-Difluoro-4-morpholin-4-ylmethyl-phenyl)-7H-pyrrolo[2,3-d]pyrimidin-2-yl]-(3-imidazol-1-ylmethyl-4-methyl-phenyl)-amine]: the IC50 in experiment [1] is 26.5 nM; at GST-JAK2(808-1132), no more than 3 nM.

Regarding `Cc1ccc(Nc2ncc3ccn(-c4cc(F)c(CN5CCOCC5)c(F)c4)c3n2)cc1CN1CCN(C=O)CC1` [Example 370, 4-{5-[7-(3,5-Difluoro-4-morpholin-4-ylmethyl-phenyl)-7H-pyrrolo[2,3-d]pyrimidin-2-ylamino]-2-methyl-benzyl}-piperazine-1-carbaldehyde], the IC50 in experiment [1] is 31.3 nM; at GST-JAK2(808-1132), no more than 3 nM.

As for `Fc1cc(-n2ccc3cnc(Nc4ccc(CN5CCOCC5)nc4)nc32)cc(F)c1CN1CCOCC1` [Example 480, [7-(3,5-Difluoro-4-morpholin-4-ylmethyl-phenyl)-7H-pyrrolo[2,3-d]pyrimidin-2-yl]-(6-morpholin-4-ylmethyl-pyridin-3-yl)-amine], the IC50 is 71 nM in experiment [1] and no more than 3 nM at GST-JAK2(808-1132).

As to `Fc1cc(-n2ccc3cnc(Nc4ccnc(OCCN5CCOCC5)c4)nc32)cc(F)c1CN1CCOCC1` [Example 352, [7-(3,5-Difluoro-4-morpholin-4-yl methyl-phenyl)-7H-pyrrolo[2,3-d]pyrimidin-2-yl]-[2-(2-morpholin-4-yl-ethoxy)-pyridin-4-yl]-amine], the IC50 in experiment [1] was 22.1 nM; on GST-JAK2(808-1132) it was no more than 3 nM.

As for `Cc1ccc(Nc2ncc3ccn(-c4cc(F)c(CN5CCOCC5)c(F)c4)c3n2)cc1CN1CCN(CCN(C)C)CC1` [Example 398, [7-(3,5-Difluoro-4-morpholin-4-ylmethyl-phenyl)-7H-pyrrolo[2,3-d]pyrimidin-2-yl]-{3-[4-(2-dimethylamino-ethyl)-piperazin-1-ylmethyl]-4-methyl-phenyl}-amine], the results for the IC50 (in experiment [1]; on GST-JAK2(808-1132)) were 245 nM and no more than 3 nM, respectively.

`Cc1ccc(Nc2ncc3ccn(-c4ccc(C(=O)N5CCS(=O)(=O)CC5)c(F)c4)c3n2)cc1CN1CCNC(C(F)(F)F)C1` (racemic) [Example 403]: the IC50 in experiment [1] is 22.5 nM; at GST-JAK2(808-1132), no more than 3 nM.

Regarding `Fc1cc(-n2ccc3cnc(Nc4cnc(N5CCNCC5)c(Cl)c4)nc32)cc(F)c1CN1CCOCC1` [Example 502, (5-Chloro-6-piperazin-1-yl-pyridin-3-yl)-[7-(3,5-difluoro-4-morpholin-4-ylmethyl-phenyl)-7H-pyrrolo[2,3-d]pyrimidin-2-yl]-amine], the IC50 in experiment [1] is 17 nM; on GST-JAK2(808-1132) it was no more than 3 nM.

In the case of `Cc1ccc(Nc2ncc3ccn(-c4cc(F)c(CN5CCOCC5)c(F)c4)c3n2)cc1CN1CCNC(C(F)(F)F)C1` (racemic) [Example 404, [7-(3,5-Difluoro-4-morpholin-4-ylmethyl-phenyl)-7H-pyrrolo[2,3-d]pyrimidin-2-yl]-[4-methyl-3-(3-trifluoromethyl-piperazin-1-ylmethyl)-phenyl]-amine], the IC50 came out at 141 nM in experiment [1] and 5.6 nM on GST-JAK2(808-1132).

With `C[C@@H]1CN(c2ccc(Nc3ncc4ccn(-c5cc(F)c(CN6CCCC6=O)c(F)c5)c4n3)cn2)C[C@H](C)N1` [Example 458, 1-(4-{2-[6-(cis-3,5-Dimethyl-piperazin-1-yl)-pyridin-3-ylamino]-pyrrolo[2,3-d]pyrimidin-7-yl}-2,6-difluoro-benzyl)-pyrrolidin-2-one], the IC50 in experiment [1] was 1.4 nM; on GST-JAK2(808-1132), no more than 3 nM.

Regarding `Fc1cc(-n2ccc3cnc(Nc4cccc([C@H]5COCCN5)c4)nc32)cc(F)c1CN1CCOCC1` [Example 507, [7-(3,5-Difluoro-4-morpholin-4-ylmethyl-phenyl)-7H-pyrrolo[2,3-d]pyrimidin-2-yl]-((S)-3-morpholin-3-yl-phenyl)-amine], the values for the IC50 (in experiment [1]; on GST-JAK2(808-1132)) were 0.2 nM and less than 3 nM, respectively.

As for `Fc1cc(-n2ccc3cnc(Nc4ccc(OCC5CCOCC5)nc4)nc32)cc(F)c1CN1CCOCC1` [Example 517, [7-(3,5-Difluoro-4-morpholin-4-ylmethyl-phenyl)-7H-pyrrolo[2,3-d]pyrimidin-2-yl]-[6-(tetrahydro-pyran-4-ylmethoxy)-pyridin-3-yl]-amine], the IC50 in experiment [1] is 69.5 nM; at GST-JAK2(808-1132), no more than 3 nM.

Regarding `Cc1cc(Nc2ncc3ccn(-c4cc(F)c(CN5CCOCC5)c(F)c4)c3n2)cnc1N1CCNCC1=O` [Example 495, 1-{5-[7-(3,5-Difluoro-4-morpholin-4-ylmethyl-phenyl)-7H-pyrrolo[2,3-d]pyrimidin-2-ylamino]-3-methyl-pyridin-2-yl}-piperazin-2-one], the results for the IC50 (in experiment [1]; at GST-JAK2(808-1132)) were 51 nM and no more than 3 nM, respectively.

With `CN(C)CCN1CCN(Cc2cc(Nc3ncc4ccn(-c5cc(F)c(CN6CCOCC6)c(F)c5)c4n3)ccn2)CC1` [Example 396, [7-(3,5-Difluoro-4-morpholin-4-ylmethyl-phenyl)-7H-pyrrolo[2,3-d]pyrimidin-2-yl]-{2-[4-(2-dimethylamino-ethyl)-piperazin-1-ylmethyl]-pyridin-4-yl}-amine], the IC50 was 147 nM in experiment [1] and no more than 3 nM at GST-JAK2(808-1132).

Regarding `CN(C)CCN1CCN(c2ccc(Nc3ncc4ccn(-c5cc(F)c(CN6CCOCC6)c(F)c5)c4n3)cn2)CC1` [Example 465, [7-(3,5-Difluoro-4-morpholin-4-ylmethyl-phenyl)-7H-pyrrolo[2,3-d]pyrimidin-2-yl]-{6-[4-(2-dimethylamino-ethyl)-piperazin-1-yl]-pyridin-3-yl}-amine], the 50% inhibitory concentration (IC50) in experiment [1] is 3.2 nM; at GST-JAK2(808-1132), no more than 3 nM.

Turning to `C[C@@H]1CN(Cc2cc(Nc3ncc4ccn(-c5cc(F)c(CN6CCOCC6)c(F)c5)c4n3)ccn2)C[C@H](C)N1` [Example 391, [7-(3,5-Difluoro-4-morpholin-4-ylmethyl-phenyl)-7H-pyrrolo[2,3-d]pyrimidin-2-yl]-[2-(cis-3,5-dimethyl-piperazin-1-ylmethyl)-pyridin-4-yl]-amine], the IC50 in experiment [1] is 150 nM; on GST-JAK2(808-1132), 4.9 nM.

As to `Cc1ccc(Nc2ncc3ccn(-c4ccc(C(=O)N5CCOCC5)c(F)c4)c3n2)cc1CN1CCN(C2CC2)CC1` [Example 366, (4-{2-[3-(4-Cyclopropyl-piperazin-1-ylmethyl)-4-methyl-phenylamino]-pyrrolo[2,3-d]pyrimidin-7-yl}-2-fluoro-phenyl)-morpholin-4-yl-methanone], the values for the IC50 (in experiment [1]; at GST-JAK2(808-1132)) were 65 nM and 8.6 nM, respectively.

In the case of `CN1CCN(Cc2cc(Nc3ncc4ccn(-c5cc(F)c(CN6CCOCC6)c(F)c5)c4n3)ccn2)CC1` [Example 384, [7-(3,5-Difluoro-4-morpholin-4-ylmethyl-phenyl)-7H-pyrrolo[2,3-d]pyrimidin-2-yl]-[2-(4-methyl-piperazin-1-ylmethyl)-pyridin-4-yl]-amine], the results for the IC50 (in experiment [1]; at GST-JAK2(808-1132)) were 12 nM and no more than 3 nM, respectively.

In the case of `C[C@@H]1CN(c2ncc(Nc3ncc4ccn(-c5cc(F)c(CN6CCOCC6)c(F)c5)c4n3)cc2C(F)(F)F)C[C@H](C)N1` [Example 496, [7-(3,5-Difluoro-4-morpholin-4-ylmethyl-phenyl)-7H-pyrrolo[2,3-d]pyrimidin-2-yl]-[6-(cis-3,5-dimethyl-piperazin-1-yl)-5-trifluoromethyl-pyridin-3-yl]-amine], the IC50 in experiment [1] was 97.2 nM; at GST-JAK2(808-1132) it was no more than 3 nM.

Consider `Fc1cc(-n2ccc3cnc(Nc4ccc([C@H]5COCCN5CCOCc5ccccc5)cc4)nc32)cc(F)c1CN1CCOCC1` [Example 520, {4-[(S)-4-(2-Benzyloxy-ethyl)-morpholin-3-yl]-phenyl}-[7-(3,5-difluoro-4-morpholin-4-ylmethyl-phenyl)-7H-pyrrolo[2,3-d]pyrimidin-2-yl]-amine], for which the IC50 in experiment [1] was 543 nM; at GST-JAK2(808-1132) it was 57 nM.

As to `Fc1cc(-n2ccc3cnc(Nc4ccc(Cl)c(CN5CCNCC5)c4)nc32)cc(F)c1CN1CCOCC1` [Example 401, (4-Chloro-3-piperazin-1-ylmethyl-phenyl)-[7-(3,5-difluoro-4-morpholin-4-ylmethyl-phenyl)-7H-pyrrolo[2,3-d]pyrimidin-2-yl]-amine], the IC50 was 138 nM in experiment [1] and 7 nM on GST-JAK2(808-1132).

`COCCOc1ccc(Nc2ncc3ccn(-c4cc(F)c(CN5CCOCC5)c(F)c4)c3n2)cn1` [Example 516, [7-(3,5-Difluoro-4-morpholin-4-ylmethyl-phenyl)-7H-pyrrolo[2,3-d]pyrimidin-2-yl]-[6-(2-methoxy-ethoxy)-pyridin-3-yl]-amine]: the IC50 in experiment [1] is 119 nM; at GST-JAK2(808-1132), 6.4 nM.

With `CN1CCN(C(=O)c2cc(Nc3ncc4ccn(-c5cc(F)c(CN6CCOCC6)c(F)c5)c4n3)ccn2)CC1` [Example 361, {4-[7-(3,5-Difluoro-4-morpholin-4-ylmethyl-phenyl)-7H-pyrrolo[2,3-d]pyrimidin-2-ylamino]-pyridin-2-yl}-(4-methyl-piperazin-1-yl)-methanone], the values for the IC50 (in experiment [1]; on GST-JAK2(808-1132)) were 260 nM and 23 nM, respectively.

For the compound `Fc1cc(-n2ccc3cnc(Nc4ccc(N5CCNC(C(F)(F)F)C5)nc4)nc32)cc(F)c1CN1CCOCC1` (racemic) [Example 469, [7-(3,5-Difluoro-4-morpholin-4-ylmethyl-phenyl)-7H-pyrrolo[2,3-d]pyrimidin-2-yl]-[6-(3-trifluoromethyl-piperazin-1-yl)-pyridin-3-yl]-amine], the results for the IC50 (in experiment [1]; on GST-JAK2(808-1132)) were 25 nM and no more than 3 nM, respectively.

Source of the values: patent publication US8420657B2 (Novartis AG, priority 2008, dated 2013).
